PubChem BioAssay AID2060621 (Molecular Pharmacology Branch, DTP, NCI, 2025)
pIC50: −log10 of the molar value.

Test system: 324938-238-R-J1-PDC complex spheroids viability
Test: Anticancer human tumor 324938-238-R-J1-PDC patient-derived bladder carcinoma cell line growth inhibition [CLK]
Conditions: for pIC50: curve of first compound; for viability, T/C: stronger effect = lower value; active = viability on the fitted dose curve at most 10% of control; inactive = the rest
Text: A high-throughput screen of multi-cell type tumor spheroids was designed to identify active combinations of […] and targeted small molecules. Complex spheroids include a stromal component modeled by human endothelial cells (HUVEC) and fibroblasts modeled by human mesenchymal stem cells (MSCs). The concentration ranges selected for each drug and investigational agent were based upon clinically achievable concentrations if the clinical Cmax of the agent was known.
Compounds. The drugs and investigational agents: cirtuvivint (SM08502; NSC835563), CC-671 (NSC850746), vemurafenib (NSC761431), tapotoclax (NSC804041), sotorasib (NSC818433), adagrasib (NSC831453), MRTX-1133 (NSC836407), BAY2416964 (NSC825713), copanlisib (NSC816437), inavolisib (NSC800729), abemaciclib (NSC768073), osimertinib (NSC779217), entinostat (NSC756642), eltanexor (KPT-8602, NSC794443), venetoclax (NSC766270), ceralasertib (NSC777638), bortezomib (NSC756655), olaparib (NSC753686), talazoparib (NSC767125), alisertib (NSC759677), peposertib (NSC802822), gemcitabine (NSC613327), 5-fluorouracil (NSC19893), SN-38 (NSC673596), oxaliplatin (NSC266046), paclitaxel (NSC125973), and doxorubicin (NSC123127), were obtained from the National Cancer Institute (NCI) Developmental Therapeutics Program Chemical Repository. The FDA-approved anticancer drug set is available from the Developmental Therapeutics Program at https://dtp.cancer.gov/organization/dscb/obtaining/available plates.htm. […] The stock solutions were prepared in dimethyl sulfoxide (DMSO, Sigma-Aldrich, St. Louis, MO, cat. D2650), except for the platinum complexes which were prepared in saline (Quality Biological, Gaithersburg, MD, cat. 114-055-101), at 800-fold the tested concentration and stored at -70 degrees C prior to their use. All drugs and investigational agents were tested over a range starting from a high concentration at or near the clinical Cmax and decreasing in half-log increments. If the clinical Cmax for an agent had not been determined, the highest concentration tested was 10 microM.
Cell Culture. All cells were maintained in an incubator at 37 degrees C and 5% CO2 with 95% humidity. The PDC lines were cultured according to standard operating procedures established by the NCI PDMR. Briefly, all PDCs were thawed and cultured in Matrigel-coated flasks prepared with a working solution of 1X Ham's F-12 nutrient mix, without supplementation (Invitrogen, Waltham, MA, cat. 11765054), 100 U/mL penicillin-streptomycin (Invitrogen, cat. 15140122), and 2.5% Matrigel (Corning Inc., Corning, NY, cat. 354248) for the first three passages. The 947758-054-R-J2-PDC line was cultured in 6B/Colon 1A media, which includes advanced DMEM/F-12 (Thermo Fisher Scientific, cat. 12634028), 10 mM HEPES (Thermo Fisher Scientific, cat. 15630080), 1X GlutaMAX supplement (Thermo Fisher Scientific, cat. 35050061), 0.1 mg/mL primocin (InvivoGen, cat. ant-pm-2), 10% defined fetal bovine serum, heat inactivated (HyClone Laboratories Inc., cat. SH30070.03HI), 1.25 mM N-Acetyl-L-cysteine (Sigma-Aldrich, cat. A9165), 10 mM nicotinamide (Sigma-Aldrich, cat. N0636), 1X B-27 supplement (Thermo Fisher Scientific, cat. 17504044), 1X N-2 supplement (Thermo Fisher Scientific, cat. 17502048), and 10 microM Y-27632 dihydrochloride (Tocris Bioscience, cat. 1254). The 876862-298-R-J1-PDC was cultured in 6E media, which includes all 6B/Colon 1A media components plus 50% L-WRN conditioned media (ATCC, cat. CRL-3276), 50 ng/mL recombinant human EGF recombinant protein (hEGF; Thermo Fisher Scientific, cat. PHG0311), 10 ng/mL recombinant human fibroblast growth factor 10 (hGFG-10; PeproTech, cat. 100-26), 1 ng/mL recombinant human fibroblast growth factor 2 (hFGF-2; PeproTech, cat. 100-18B), and 1 µM prostaglandin E2 (PGE2; Tocris, cat. 2296). The 227483-062-R1-J1-PDC line was cultured in Panc media, containing all 6E components except hFGF-2, with the addition of 500 nM SB-431542 (Selleckchem, cat. S1067) and 10 nM gastrin (Tocris, cat. 3006). […]

[1] = second compound 0.0316 µM, first compound 0.0316 µM
[2] = second compound 0.0316 µM, first compound 0.1 µM
[3] = second compound 0.0316 µM, first compound 0.316 µM
[4] = second compound 0.0316 µM, first compound 1 µM
[5] = second compound 0.0316 µM, first compound 3.16 µM
[6] = second compound 0.0316 µM, first compound 10 µM
[7] = second compound 0.1 µM, first compound 0.0316 µM
[8] = second compound 0.1 µM, first compound 0.1 µM
[9] = second compound 0.1 µM, first compound 0.316 µM
[10] = second compound 0.1 µM, first compound 1 µM
[11] = second compound 0.1 µM, first compound 3.16 µM
[12] = second compound 0.1 µM, first compound 10 µM
[13] = second compound 0.316 µM, first compound 0.0316 µM
[14] = second compound 0.316 µM, first compound 0.1 µM
[15] = second compound 0.316 µM, first compound 0.316 µM
[16] = second compound 0.316 µM, first compound 1 µM
[17] = second compound 0.316 µM, first compound 3.16 µM
[18] = second compound 0.316 µM, first compound 10 µM
[19] = second compound 1 µM, first compound 0.0316 µM
[20] = second compound 1 µM, first compound 0.1 µM
[21] = second compound 1 µM, first compound 0.316 µM
[22] = second compound 1 µM, first compound 1 µM
[23] = second compound 1 µM, first compound 3.16 µM
[24] = second compound 1 µM, first compound 10 µM
[25] = second compound 3.16 µM, first compound 0.0316 µM
[26] = second compound 3.16 µM, first compound 0.1 µM
[27] = second compound 3.16 µM, first compound 0.316 µM
[28] = second compound 3.16 µM, first compound 1 µM
[29] = second compound 3.16 µM, first compound 3.16 µM
[30] = second compound 3.16 µM, first compound 10 µM
[31] = second compound 10 µM, first compound 0.0316 µM
[32] = second compound 10 µM, first compound 0.1 µM
[33] = second compound 10 µM, first compound 0.316 µM
[34] = second compound 10 µM, first compound 1 µM
[35] = second compound 10 µM, first compound 3.16 µM
[36] = second compound 10 µM, first compound 10 µM
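Note: viability read after seven days of drug exposure.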
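Throughout, for viability, T/C: 100% = DMSO vehicle control wells.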

C=C(F)C(=O)N1CCN(c2nc(OCC3CCCN3C)nc3c2CCN(c2cccc4cccc(Cl)c24)C3)CC1CC#N (centres undefined) + CN1CCN(c2cc(C(=O)Nc3cc4cc(-c5cnn(C)c5)ccc4cn3)ccn2)CC1
active: viability, T/C [6] 2.48% | viability, T/C [12] 2.19% | viability, T/C [18] 0.24% | viability, T/C [19] 2.43% | viability, T/C [20] 1.75% | viability, T/C [21] 2.24% | viability, T/C [22] 1.87% | viability, T/C [23] 0.88% | viability, T/C [24] 0.23% | viability, T/C [25] 0.21% | viability, T/C [26] 0.19% | viability, T/C [27] 0.24% | viability, T/C [28] 0.17% | viability, T/C [29] 0.33% | viability, T/C [30] 0.12% | viability, T/C [31] 0.34% | viability, T/C [32] 0.23% | viability, T/C [33] 0.23% | viability, T/C [34] 0.35% | viability, T/C [35] 0.2% | viability, T/C [36] 0.2%
> 7.50: pIC50 (second compound 0.316 µM) | pIC50 (second compound 1 µM) | pIC50 (second compound 3.16 µM) | pIC50 (second compound 10 µM)
5.81: pIC50 (second compound 0.1 µM)
inactive: viability, T/C [1] 75.2% | viability, T/C [2] 88.7% | viability, T/C [3] 81.8% | viability, T/C [4] 78.8% | viability, T/C [5] 49.6% | viability, T/C [7] 60.9% | viability, T/C [8] 64% | viability, T/C [9] 57.3% | viability, T/C [10] 53.3% | viability, T/C [11] 43.3% | viability, T/C [13] 25.4% | viability, T/C [14] 26.9% | viability, T/C [15] 22.3% | viability, T/C [16] 24.5% | viability, T/C [17] 19.6%
5.51: pIC50 (second compound 0.0316 µM)

C=CC(=O)N1CCN(c2nc(=O)n(-c3c(C)ccnc3C(C)C)c3nc(-c4c(O)cccc4F)c(F)cc23)C(C)C1 (centres undefined) + CNC(=O)c1ccc(Nc2nc(OC3CCCC3)c3c(-c4ccc5nc(C)oc5c4)c[nH]c3n2)c(OC)c1
< 5.00: pIC50 (second compound 0.0316 µM)
> 7.50: pIC50 (second compound 0.1 µM) | pIC50 (second compound 0.316 µM) | pIC50 (second compound 1 µM) | pIC50 (second compound 3.16 µM) | pIC50 (second compound 10 µM)
inactive: viability, T/C [1] 92.7% | viability, T/C [2] 95.3% | viability, T/C [3] 96.2% | viability, T/C [4] 102% | viability, T/C [5] 88.8% | viability, T/C [6] 81.4% | viability, T/C [7] 32.6% | viability, T/C [8] 30.8% | viability, T/C [9] 27.9% | viability, T/C [10] 35.1% | viability, T/C [11] 33.5% | viability, T/C [12] 31.6% | viability, T/C [13] 20.4% | viability, T/C [14] 17.4% | viability, T/C [15] 20.7% | viability, T/C [16] 20.4% | viability, T/C [17] 23.9% | viability, T/C [18] 27.4% | viability, T/C [19] 15.3% | viability, T/C [20] 16.1% | viability, T/C [21] 16.5% | viability, T/C [22] 19.3% | viability, T/C [23] 20.5% | viability, T/C [24] 21.5% | viability, T/C [25] 18.3% | viability, T/C [26] 18.4% | viability, T/C [27] 20.4% | viability, T/C [28] 18.8% | viability, T/C [29] 23.7% | viability, T/C [30] 25.5% | viability, T/C [31] 19.4% | viability, T/C [32] 15.6% | viability, T/C [33] 18.5% | viability, T/C [34] 21% | viability, T/C [35] 25.5% | viability, T/C [36] 25.7%
